Reference: paper PMC6152377, “Structure-Activity Relationships of Acyclic Selenopurine Nucleosides as Antiviral Agents” (Molecules : A Journal of Synthetic Chemistry and Natural …, 2017)
pEC50: −log10 of the molar value. Where two headings read alike, the source gives them in different places.

What was measured:
[1] = system: HSV-2 (strain MS, VR-540); assay: CPE inhibition antiviral assay, HSV-2; type: cell-based; settings: Human alphaherpesvirus 2, 72 h, inhibition of virus-induced cytopathic effect by 50%, MTT readout, 3 days
Experimental: (§1) All the final compounds 3a–f and 4a–g were assayed for their antiviral activity against several herpes viruses such as HSV-1 (strain F, VR-733), HSV-2 (strain MS, VR-540), VZV (Ellen, VR-1367), and HCMV (Davis, VR-807). Cytotoxicity data were measured in HEL299 (CCL-137) cells as described previously. […] Antiviral activity was measured using a standard cytopathic (CPE) inhibition assay as described before. Briefly, Vero cells in stationary phase were infected with the virus at a multiplicity of infection of 2–4 CCID50 (50% cell culture inhibitory dose) per each well of 96-well plates. After 2 h of adsorption at 37 °C, the liquid was aspirated and 100 μL of Dulbeco’s modified eagle’s media (DMEM)/2% fetal bovine serum (FBS) containing a compound was applied to each well in duplicate for each concentration and further incubated for 3 days. Antiviral activity was measured by MTT assay and expressed as the EC50. Cytocidal assay was performed as a control experiment for the antiviral assay. It was carried out simultaneously with the antiviral assay described above using mock instead of virus for infection, and cell viability was measured by MTT assay. The concentration of the compound responsible for 50% reduction of cell growth was calculated and expressed as CC50.

[2] = system: VZV (Ellen, VR-1367); assay: CPE inhibition antiviral assay, VZV; type: cell-based, varicella-zoster virus (VZV); settings: Human alphaherpesvirus 3; inhibition of virus-induced cytopathic effect by 50%; strain Ellen; MTT readout
Experimental: as §1

[3] = system: HSV-1 (strain F, VR-733); assay: CPE inhibition antiviral assay, HSV-1; type: cell-based, herpes simplex virus (HSV)-1; settings: Human alphaherpesvirus 1, 72 h, inhibition of virus-induced cytopathic effect by 50%, MTT readout, 3 days
Experimental: as §1

[4] = system: HCMV (Davis, VR-807); assay: CPE inhibition antiviral assay, HCMV; type: cell-based, human cytomegalovirus (HCMV); settings: Human betaherpesvirus 5; inhibition of virus-induced cytopathic effect by 50%; strain Davis; MTT readout
Experimental: as §1

[5] = Cytotoxicity (cytocidal) assay, MTT; type: cell-based; settings: human, 50% reduction of cell viability, mock infection
Experimental: as §1

[6] = system: HSV-2 (strain MS, VR-540); parameters: method as in PMID 20466277; settings: inhibition of virus-induced cytopathic effect by 50%, ref [11]; cited from earlier work
[7] = system: VZV (Ellen, VR-1367); parameters: method as in PMID 20466277; settings: inhibition of virus-induced cytopathic effect by 50%; strain Ellen; ref [11]; cited from earlier work
[8] = system: HEL299 (CCL-137) cells; settings: read-out: CC50 HEL299, 50% reduction of cell viability, ref [11]; cited from earlier work
[9] = system: HSV-1 (strain F, VR-733); parameters: method as in PMID 20466277; settings: inhibition of virus-induced cytopathic effect by 50%, ref [11]; cited from earlier work
[10] = system: HCMV (Davis, VR-807); parameters: method as in PMID 20466277; settings: inhibition of virus-induced cytopathic effect by 50%; strain Davis; ref [11]; cited from earlier work

| Compound | pEC50 [1] | pEC50 [2] | pEC50 [3] | pEC50 [4] | CC50 at 3 days ([5]; HEL299 (CCL-137) cells, mock-infected) [µM] | melting point [°C] | CC50 at 3 days ([5]; HEL299 cells) [µM] | pEC50 [6] | pEC50 [7] | CC50 [8] [µM] | pEC50 [9] | pEC50 [10] |
| --- | --- | --- | --- | --- | --- | --- | --- | --- | --- | --- | --- | --- |
| Nc1nc2c(ncn2COCCO)c(=O)[nH]1 [Compound 1, acyclovir, reference compound] | 5.99 | 5.19 | 6.18 | 4.72 | – | – | – | – | – | – | – | – |
| Nc1nc(O)c2ncn(COC(CO)CO)c2n1 [Compound 2, ganciclovir, reference compound] | 5.85 | 4.95 | 6.05 | 5.67 | > 100 | – | – | – | – | – | – | – |
| O=c1[nH]cnc2c1ncn2C[Se]CCO [Compound 3a, 9-((2-Hydroxyethylselanyl)methyl)-1H-purin-6-(9H)-one] | < 4.00 | < 4.00 | < 4.00 | < 4.00 | – | 225 to 227 | > 100 | – | – | – | – | – |
| CNc1ncnc2c1ncn2C[Se]CCO [Compound 3b, 2-((6-(Methylamino)-9H-purin-9-yl)methylselanyl) ethanol] | < 4.00 | < 4.00 | < 4.00 | < 4.00 | – | 171 to 173 | > 100 | – | – | – | – | – |
| Nc1ncnc2c1ncn2C[Se]CCO [Compound 3c, 2-((6-Amino-9H-purin-9-yl)methylselanyl)ethanol] | < 4.00 | < 4.00 | < 4.00 | < 4.00 | – | 175 to 177 | > 100 | – | – | – | – | – |
| O=c1[nH]cnc2c1ncn2C[Se]C(CO)CO [Compound 3d, 9-((1,3-Dihydroxypropan-2-ylselanyl)methyl)-1H purin-6(9H)-one] | < 4.00 | < 4.00 | < 4.00 | < 4.00 | – | – | > 100 | – | – | – | – | – |
| CNc1ncnc2c1ncn2C[Se]C(CO)CO [Compound 3e, 2-((6-(Methylamino)-9H-purin-9-yl)methylselanyl)propane-1,3-diol] | < 4.00 | < 4.00 | < 4.00 | < 4.00 | – | 180 to 183 | > 100 | – | – | – | – | – |
| Nc1ncnc2c1ncn2C[Se]C(CO)CO [Compound 3f, 2-((6-Amino-9H-purin-9-yl)methylselanyl)propane-1,3-diol] | < 4.00 | < 4.00 | < 4.00 | 4.19 | – | 186 to 188 | > 100 | – | – | – | – | – |
| Nc1nc2c(ncn2C[Se]CCO)c(=O)[nH]1 [Compound 4a, 9-((2-Hydroxyethylselanyl)methyl)-2-amino-1H purin-6(9H)-one] | – | – | – | – | – | – | – | 5.20 | < 4.00 | > 100 | 5.83 | < 4.00 |
| CNc1nc(N)nc2c1ncn2C[Se]CCO [Compound 4b, 2-((2-Amino-6-(methylamino)-9H-purin-9-yl)methylselanyl) ethanol] | 4.75 | < 4.00 | 4.84 | < 4.00 | – | 183 to 185 | > 100 | – | – | – | – | – |
| Nc1nc(N)c2ncn(C[Se]CCO)c2n1 [Compound 4c, 2-((2,6-Diamino-9H-purin-9-yl)methylselanyl) ethanol] | 4.63 | < 4.00 | 4.81 | < 4.00 | – | 84 to 86 | > 100 | – | – | – | – | – |
| Nc1nc2c(ncn2C[Se]C(CO)CO)c(=O)[nH]1 [Compound 4d, 9-((1,3-Dihydroxypropan-2-ylselanyl)methyl)-2-amino-1H-purin-6(9H)-one] | – | – | – | – | – | – | – | < 4.00 | < 4.00 | > 100 | < 4.00 | 4.27 |
| CNc1nc(N)nc2c1ncn2C[Se]C(CO)CO [Compound 4e, 2-((2-Amino-6-(methylamio)-9H-purin-9-yl)methylselanyl) propane-1,3-diol] | < 4.00 | < 4.00 | < 4.00 | 4.49 | – | 140 to 143 | > 100 | – | – | – | – | – |
| Nc1nc(N)c2ncn(C[Se]C(CO)CO)c2n1 [Compound 4f, 2-((2,6-Diamino-9H-purin-9-yl)methylselanyl)propane-1,3-diol] | < 4.00 | < 4.00 | < 4.00 | 4.46 | – | 193 to 196 | > 100 | – | – | – | – | – |
| Nc1nc(NC2CC2)c2ncn(C[Se]C(CO)CO)c2n1 [Compound 4g, 2-((2-Amino-6-(cyclopropylamino)-9H-purin-9-yl)methylselanyl)propane-1,3-diol] | < 4.00 | < 4.00 | < 4.00 | 4.39 | – | – | > 100 | – | – | – | – | – |
